From PubChem BioAssay (NCI)
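All cell lines were grown in 96-well plates and treated with compound for 48 hours. GI50: concentration for 50% inhibition of growth. TGI denotes the concentration required for complete inhibition of growth.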

Columns and labels:
Assay in all cases: growth of human tumour cells (NCI), 48 h
[1] = tested on: EKVX NSCLC
[2] = tested on: OVCAR-3 ovarian
[3] = tested on: RPMI-8226 leukemia
[4] = tested on: SK-MEL-28 melanoma
[5] = tested on: HL-60(TB) leukemia
[6] = tested on: HCT-116 colon
[7] = tested on: U251 CNS
[8] = tested on: SN12C renal
[9] = tested on: SNB-19 CNS
[10] = tested on: SK-MEL-5 melanoma
[11] = tested on: UO-31 renal
[12] = tested on: HS 578T breast
[13] = tested on: SR leukemia
[14] = tested on: NCI-H460 lung
[15] = tested on: NCI-H23 lung
[16] = tested on: HCT-15 colon
[17] = tested on: IGROV1 ovarian
[18] = tested on: SW-620 colon
[19] = tested on: COLO 205 colon
[20] = tested on: CCRF-CEM leukemia
[21] = tested on: A549 NSCLC
[22] = tested on: TK-10 renal
[23] = tested on: KM12 colon
[24] = tested on: ACHN renal
[25] = tested on: CAKI-1 renal
[26] = tested on: A498 renal
[27] = tested on: OVCAR-5 ovarian
[28] = tested on: UACC-62 melanoma

Compound: NC(=Nc1ccc(OCCCCCCCCn2cnnn2)cc1)c1ccccc1
- GI50 [1]: 0.418 µM
- TGI [1]: > 100 µM
- GI50 [2]: 0.398 µM
- TGI [2]: > 52 µM
- GI50 [3]: 0.364 µM
- TGI [3]: 19.6 µM
- GI50 [4]: 0.783 µM
- TGI [4]: > 49.2 µM
- GI50 [5]: 0.246 µM
- TGI [5]: 0.846 µM
- GI50 [6]: 0.353 µM
- TGI [6]: 13.8 µM
- GI50 [7]: 0.383 µM
- TGI [7]: > 63.5 µM
- GI50 [8]: 0.472 µM
- TGI [8]: 18.2 µM
- GI50 [9]: 0.594 µM
- TGI [9]: > 100 µM
- GI50 [10]: 0.282 µM
- TGI [10]: 1.42 µM
- GI50 [11]: 0.555 µM
- TGI [11]: 40.8 µM
- GI50 [12]: 0.307 µM
- TGI [12]: 48.8 µM
- GI50 [13]: 0.0752 µM
- TGI [13]: > 50.5 µM
- GI50 [14]: 0.343 µM
- TGI [14]: 19 µM
- GI50 [15]: 0.436 µM
- TGI [15]: 20.1 µM
- GI50 [16]: 0.272 µM
- TGI [16]: 15.4 µM
- GI50 [17]: 0.717 µM
- TGI [17]: 21.8 µM
- GI50 [18]: 0.352 µM
- TGI [18]: > 100 µM
- GI50 [19]: 0.284 µM
- TGI [19]: 1.86 µM
- GI50 [20]: 0.358 µM
- TGI [20]: 38.2 µM
- GI50 [21]: 0.586 µM
- TGI [21]: > 100 µM
- GI50 [22]: 3.06 µM
- TGI [22]: > 83.7 µM
- GI50 [23]: 0.423 µM
- TGI [23]: > 73.1 µM
- GI50 [24]: 0.659 µM
- TGI [24]: 62 µM
- GI50 [25]: 0.324 µM
- TGI [25]: 46.1 µM
- GI50 [26]: 17.4 µM
- TGI [26]: 63.4 µM
- GI50 [27]: 0.458 µM
- TGI [27]: > 41.5 µM
- GI50 [28]: 0.442 µM
